Laboratory results: paper PMC7311426, “An amphipathic peptide with antibiotic activity against multidrug-resistant Gram-negative bacteria” (Nature Communications, 2020)
In brackets after ≈: the same amount, converted by molar mass. Like-named read-outs stand apart in the source and are kept apart here. Residues, ends and D or L forms follow the SMILES beside them.

Legend:
[1] = tested on: P. aeruginosa; test: microbe, parasite or virus in culture
Method: (§1) Antimicrobial activity of arenicin-3 and its analogs was tested against a panel of bacterial and yeast strains by in vitro broth microdilution (BMD) assay with minimum inhibitory concentration (MIC) determination. Strains were purchased from American Type Culture Collection (ATCC) or obtained from clinical collaborators (full strain profiles provided in Supplementary Data 3). All peptides were prepared in Ringer’s acetate solution, and subsequently diluted fresh in water for each independent assay.
(§2) Assays were performed in Mueller Hinton broth (MHB; BD, Cat. No. 211443) for bacteria, and yeast extract-peptone dextrose (YPD; Sigma-Aldrich, Y1500) for yeast. The concentrations of the peptides and comparator antibiotics/antifungals in the assay wells ranged from either 128 or 64 μg mL^−1, to 0.06 or 0.03 μg mL^−1 as a 12-point dose response plated as a 2-fold dilution series across the wells of the plate in duplicate for each independent biological replicate, using a final cell density of 5 × 10^5 CFU mL^−1 and 2.5 × 10^3 CFU mL^−1 for bacteria and yeast respectively. Final assay volumes were 100 μL per well with MICs determined visually following 18-20 h incubation at 37 °C for bacteria, 24 h incubation at 35 °C for Candida albicans, and 24 h incubation at 35 °C with resazurin addition (0.006%; Sigma-Aldrich, Cat # R7017) for a further 3 h for Cryptococcus neoformans, without shaking. Additional bacterial and yeast susceptibility assays were performed in Cation-Adjusted Mueller Hinton Broth (CAMHB; BD, Cat No. 212322) and Roswell Park Memorial Institute (RPMI) 1640 culture medium (Life Technologies Australia, Cat No. 21870092), respectively, as recommended by CLSI guidelines (M07 11th ed[36] and M27 4th ed[37]). […] Agarose MICs were determined in MHB with 1% agarose (Bioline molecular grade; Cat no: BIO-41025; high purity, high gel strength). All experiments were performed a minimum of six replicates (n ≥ 6).

[2] = tested on: S. aureus; test: microbe, parasite or virus in culture
Method: as §1, §2

[3] = tested on: K. pneumoniae; test: microbe, parasite or virus in culture
Method: as §1, §2

[4] = tested on: A. baumannii; test: microbe, parasite or virus in culture
Method: as §1, §2

[5] = tested on: E. coli; test: microbe, parasite or virus in culture
Method: as §1, §2

[6] = tested on: human erythrocytes (HRBC); assay type: cell-based
[7] = tested on: C. albicans; test: microbe, parasite or virus in culture; conditions: 24 h
Method: as §1, §2

[8] = tested on: HK-2 human kidney proximal tubule cells; test: in vitro
Method: (§3) HEK-293 human embryonic kidney cells (ATCC CRL-1573), HepG2 liver hepatocellular carcinoma cells (ATCC HB-8065), and HK-2 human kidney proximal tubule cells (ATCC CRL-2190) cell lines were purchased from ATCC. Cytotoxicity of arenicin-3 variants was determined using the Alamar Blue (resazurin; Sigma-Aldrich, Cat # R7017), with 1% FBS for HK-2 and 10% FBS for HEK-293, and HepG2[40]. Cells were seeded as 2000 cells per well in black wall clear bottom 384-well plates (Corning®, Costar®, Cat # 3712). The cells were incubated for 24 h at 37 °C, 5% CO2. Then peptides were added into each cell containing well. After 24 h incubation, 5 μM resazurin were added per well and incubated at 37 °C for 2 h. Then the fluorescence intensity (FI) was read using a Polarstar® Omega plate reader with excitation/emission 560/590 and CC50 values were determined using Prism 8 following curve fitting and applying the following equation: Percentageviability = (FITEST-FINegative/FIUNTREATED-FINegative)×100.
(§4) Hemolytic activity was measured against isolated human erythrocytes from anonymously donated fresh human blood. Isolated erythrocytes were adjusted to 1 × 10^9 blood cells mL^−1 in phosphate-buffered saline (PBS, pH 7.4), added to the wells of NUNC polypropylene round-bottom 96-well plates (Sigma-Aldrich, Cat # P6866) then up to 300 μg mL^−1 of compound was added per well and incubated for 3 h at 37 °C. Following incubation, samples were centrifuged at 3000 rpm for 20 min, and the supernatants, 100 μL, were carefully collected for measurement. The degree of hemolysis in the samples was determined by measurement of the absorption of the supernatants at 540 nm using the Polarstar-Omega plate reader. 1% Triton-X100 was used as positive control for inducing 100% hemolysis. HC10 and HC50 values were determined using Prism 8 following curve fitting. The use of human blood (sourced from the Australian Red Cross Blood Service) for hemolysis assays was approved by the University of Queensland Institutional Human Research Ethics Committee, Approval Number 2014000031. All in vitro toxicity assays were performed for two independent biological replicates as an 8-point dose response of 3-fold dilution series in triplicate with the highest test concentration of 300 μg mL^−1.

[9] = tested on: HepG2 liver hepatocellular carcinoma cells; test: in vitro
Method: as §3, §4

[10] = in vitro; conditions: human
Method: as §3, §4

[11] = tested on: HEK-293 human embryonic kidney cells; test: in vitro
Method: as §3, §4

[12] = tested on: E. coli ATCC 25922; test: microbe, parasite or virus in culture; assay type: cell-based, Escherichia coli; conditions: ATCC 25922
Method: Assays were performed in Mueller Hinton broth (MHB; BD, Cat. No. 211443) for bacteria, and yeast extract-peptone dextrose (YPD; Sigma-Aldrich, Y1500) for yeast. The concentrations of the peptides and comparator antibiotics/antifungals in the assay wells ranged from either 128 or 64 μg mL^−1, to 0.06 or 0.03 μg mL^−1 as a 12-point dose response plated as a 2-fold dilution series across the wells of the plate in duplicate for each independent biological replicate, using a final cell density of 5 × 10^5 CFU mL^−1 and 2.5 × 10^3 CFU mL^−1 for bacteria and yeast respectively. Final assay volumes were 100 μL per well with MICs determined visually following 18-20 h incubation at 37 °C for bacteria, 24 h incubation at 35 °C for Candida albicans, and 24 h incubation at 35 °C with resazurin addition (0.006%; Sigma-Aldrich, Cat # R7017) for a further 3 h for Cryptococcus neoformans, without shaking. Additional bacterial and yeast susceptibility assays were performed in Cation-Adjusted Mueller Hinton Broth (CAMHB; BD, Cat No. 212322) and Roswell Park Memorial Institute (RPMI) 1640 culture medium (Life Technologies Australia, Cat No. 21870092), respectively, as recommended by CLSI guidelines (M07 11th ed[36] and M27 4th ed[37]). […] However, for yeast it was determined that the YPD media was more reliable and robust between repeats and therefore MICs in this media are reported. […] Agarose MICs were determined in MHB with 1% agarose (Bioline molecular grade; Cat no: BIO-41025; high purity, high gel strength). All experiments were performed a minimum of six replicates (n ≥ 6).

[13] = P. aeruginosa ATCC 27853 control strain, MHB, mode of 6 replicates
[14] = S. aureus ATCC 25923 MSSA, MHB, mode of 6 replicates
[15] = K. pneumoniae ATCC 13883 type strain (polymyxin/colistin heteroresistant), MHB, mode of 6 replicates
[16] = A. baumannii ATCC 19636 type strain, MHB, mode of 6 replicates
[17] = E. coli ATCC 25922 FDA control strain, MHB, mode of 6 independent biological replicates

Structure (SMILES)	BMD MIC [1, 13] [µg/mL]	BMD MIC [2, 14] [µg/mL]	BMD MIC [3, 15] [µg/mL]	BMD MIC [4, 16] [µg/mL]	BMD MIC [5, 17] [µg/mL]	Heamolysis HC10, Mean [6] [µg/mL]	BMD MIC [1] [µg/mL]	BMD MIC [7] [µg/mL]	BMD MIC [2] [µg/mL]	BMD MIC [3] [µg/mL]	BMD MIC [4] [µg/mL]	CC50 HK2 [8] [µg/mL]	CC50 HK2, Mean [8] [µg/mL]	CC50 HepG2 [9] [µg/mL]	CC50 HepG2, Mean [9] [µg/mL]	CC50 at 24 h ([10]; HEK-293 cells) [µg/mL]	CC50 at 24 h ([10]; HK-2 cells) [µg/mL]	CC50 at 24 h ([10]; HepG2 cells) [µg/mL]	CC50 HEK293, Mean [11] [µg/mL]	further results
CC(C)[C@@H]1NC(=O)[C@H](Cc2ccc(O)cc2)NC(=O)[C@H](Cc2c[nH]c3ccccc23)NC(=O)[C@@H](NC(=O)CN)CSSC[C@@H](C(=O)N[C@@H](CC(N)=O)C(=O)O)NC(=O)[C@H](CCCNC(=N)N)NC(=O)[C@H](CCCNC(=N)N)NC(=O)[C@H](Cc2ccc(O)cc2)NC(=O)[C@@H]2CSSC[C@H](NC1=O)C(=O)N[C@@H](C)C(=O)N[C@@H](CCCNC(=N)N)C(=O)N[C@@H](CCCNC(=N)N)C(=O)N[C@@H](CC(N)=O)C(=O)NCC(=O)N[C@@H](C)C(=O)N[C@@H](CCCNC(=N)N)C(=O)N[C@@H](C(C)C)C(=O)N2 [AB0016] (HELM PEPTIDE1{G.C.W.Y.V.C.A.R.R.N.G.A.R.V.C.Y.R.R.C.N}$PEPTIDE1,PEPTIDE1,2:R3-19:R3|PEPTIDE1,PEPTIDE1,6:R3-15:R3$$$V2.0)	1	>64	2	1	1															
CC(C)[C@@H]1NC(=O)[C@H](Cc2ccc(O)cc2)NC(=O)[C@H](Cc2c[nH]c3ccccc23)NC(=O)[C@@H](NC(=O)[C@H](Cc2ccccc2)NC(=O)CN)CSSC[C@@H](C(N)=O)NC(=O)[C@H](CCCNC(=N)N)NC(=O)[C@H](CCCNC(=N)N)NC(=O)[C@H](Cc2ccc(O)cc2)NC(=O)[C@@H]2CSSC[C@H](NC1=O)C(=O)N[C@@H](C)C(=O)N[C@@H](CCCNC(=N)N)C(=O)N[C@@H](CCCNC(=N)N)C(=O)N[C@@H](CC(N)=O)C(=O)NCC(=O)N[C@@H](C)C(=O)N[C@@H](CCCNC(=N)N)C(=O)N[C@@H](C(C)C)C(=O)N2 [AB0017] (HELM PEPTIDE1{G.F.C.W.Y.V.C.A.R.R.N.G.A.R.V.C.Y.R.R.C.[am]}$PEPTIDE1,PEPTIDE1,3:R3-20:R3|PEPTIDE1,PEPTIDE1,7:R3-16:R3$$$V2.0)	0.25	64	0.125	1	0.5															
CC(C)C[C@@H]1NC(=O)CNC(=O)[C@H](CC(N)=O)NC(=O)[C@H](CCCNC(=N)N)NC(=O)[C@H](CCCCN)NC(=O)[C@H](C)NC(=O)[C@@H]2CSSC[C@H](NC(=O)[C@H](C(C)C)NC(=O)[C@H](CCCNC(=N)N)NC1=O)C(=O)N[C@@H](Cc1ccc(O)cc1)C(=O)N[C@@H](CCCNC(=N)N)C(=O)N[C@@H](CCCNC(=N)N)C(=O)N[C@H](C(=O)N[C@@H](CC(N)=O)C(=O)O)CSSC[C@H](NC(=O)[C@H](Cc1ccccc1)NC(=O)CN)C(=O)N[C@@H](Cc1c[nH]c3ccccc13)C(=O)N[C@@H](Cc1ccc(O)cc1)C(=O)N[C@@H](C)C(=O)N2 [NZ17126] (HELM PEPTIDE1{G.F.C.W.Y.A.C.A.K.R.N.G.L.R.V.C.Y.R.R.C.N}$PEPTIDE1,PEPTIDE1,3:R3-20:R3|PEPTIDE1,PEPTIDE1,7:R3-16:R3$$$V2.0)						232	0.25	>64	32	0.25	1	>254	>250	>300	>300	> 300	> 250	> 300	>300	BMD MIC [5]: 0.125 µg/mL; CC50 HEK293 [11]: >300 µg/mL
CC(C)[C@@H]1NC(=O)CNC(=O)[C@H](CC(N)=O)NC(=O)[C@H](CCCNC(=N)N)NC(=O)[C@H](Cc2ccc(O)cc2)NC(=O)[C@H](C(C)C)NC(=O)[C@@H]2CSSC[C@H](NC(=O)[C@H](C(C)C)NC(=O)[C@H](CCCNC(=N)N)NC1=O)C(=O)N[C@@H](Cc1ccc(O)cc1)C(=O)N[C@@H](CCCNC(=N)N)C(=O)N[C@@H](CCCNC(=N)N)C(=O)N[C@H](C(=O)N[C@@H](CC(N)=O)C(=O)O)CSSC[C@H](NC(=O)[C@H](Cc1ccccc1)NC(=O)CN)C(=O)N[C@@H](Cc1c[nH]c3ccccc13)C(=O)N[C@@H](CCCNC(=N)N)C(=O)N[C@@H](C)C(=O)N2 [NZ17230] (HELM PEPTIDE1{G.F.C.W.R.A.C.V.Y.R.N.G.V.R.V.C.Y.R.R.C.N}$PEPTIDE1,PEPTIDE1,3:R3-20:R3|PEPTIDE1,PEPTIDE1,7:R3-16:R3$$$V2.0)						>300	0.25	64	64	0.25	0.5	>258	>250	>300	>300	223 (≈ 86.5 µM)	> 250	> 300	223 (≈ 86.5 µM)	Heamolysis HC10 ([6]; red cells of human, 3 h): >300 µg/mL; MIC, MHB [12]: 0.25 µg/mL (≈ 0.097 µM)
